This is an account of results in patent US7745493B2, “Methods of treating tardive dyskinesia and other movement disorders” (priority 1998, dated 2010).

The subject of data set [1] is person two with long-standing TD. The data set is described as follows: Case Report 1: clinical observation of TD with blepharospasm. The format is in vivo, human. To be noted: Case 1; for effect on involuntary movements of TD: clinical observation, acamprosate 333 mg four times a day. As to the method: Palliative treatment with alprazolam (an anxiolytic and GABA agonist via modulation; dosage 0.25 mg four times a day) and trihexyphenidyl (an anticholinergic antiparkinson drug that inhibits dopamine re-uptake at synapses; dosage 2 mg twice a day) was prescribed by another physician.
Initially, their other medications were maintained unchanged.
Nimodipine was discontinued, and the patient was begun on memantine at a dosage of 10 mg twice a day.
For the following 10 days they added 250 mg three times a day of chelated magnesium.

Data set [2] concerns person two with Parkinson's disease and peak-dose dyskinesia. The data set is described as follows: Case Report 3: peak-dose dyskinesia of treated Parkinson's disease. To be noted: Case 3; for effect on peak-dose dyskinesia: added to antiparkinson regime, memantine 10 mg three times a day, acamprosate 666 mg three times, then 333 mg four times a day, baclofen 30 and 60 mg daily, magnesium 300 mg three times a day. The format is in vivo, human. As for the experimental part: The patient's Parkinson's disease was treated using levodopa/carbidopa and bromocriptine.
Prior to beginning treatment with acamprosate, the patient was on an antiparkinson treatment regime that consisted of 1 mg of pergolide three times a day, 5 mg of selegiline twice a day, and a combination of levodopa/carbidopa consisting of 550-600 mg of levodopa and 125-150 mg of carbidopa administered in divided doses.
The patient began acamprosate as an addition to the antiparkinson regime described above. Initially, the patient received 666 mg of acamprosate administered three times a day. Two weeks later the regime was adjusted such that the patient received 333 mg of acamprosate four times a day, taking one 333 mg pill with each daytime dose of 100 mg levodopa and 25 mg carbidopa. The patient's bedtime does of controlled-release levodopa-carbidopa (200 mg of levodopa and 50 mg of carbidopa) was continued, but were given without acamprosate. […] To confirm that the patient's improvement was due to the administration of acamprosate, the patient was taken off the acamprosate. […] During the period off acamprosate, an attempt was made to replace acamprosate with baclofen (a GABA-receptor agonist) at a total daily dose of 30 mg, and then with baclofen at a total daily dose of 60 mg.
Several months later, magnesium (300 mg elemental magnesium, as a mixed chelate), was added to the regimen. It was taken three times a day, together with a one of the patient's regular doses of levodopa/carbidopa. […] To establish whether the improvement was due to magnesium, the magnesium was stopped after several weeks.

Data set [3] concerns person one with long-standing TD. The experiment in a line: Case Report 2: clinical observation of TD. It is filed as in vivo, human. To be noted: Case 2; acamprosate 666 mg three times daily added to memantine; magnesium oxide 250 mg three times a day added to acamprosate. An excerpt:
person one had long-standing TD following decades of treatment with the neuroleptic drug perphenazine. Their involuntary movements comprised bilateral chorea of the upper extremities, plus writhing of the tongue and tongue-biting. Both of the latter movements led to a very sore tongue. In addition, the patient experienced impairment of their short-term memory, which was attributed primarily to cerebrovascular disease.
They also continued to have a sore tongue. […] In addition to memantine, the patient regularly took antiepileptic drugs (gabapentin and lamotrigine), antiplatelet agents (aspirin and ticlopidine), as well as medications for hypertension, glaucoma and gastrointestinal symptoms (isosorbide mononitrate, metoprolol, timolol eye drops and olsalazine).
The patient was placed on a treatment regime that included administration of 666 mg of acamprosate, three times daily. In this case, acamprosate was added to the patient's regimen, which continued to include memantine. […] Despite past evidence from formal testing that the patient had impaired short-term memory, they performed normally on a two-sentence memory task, which involved testing the patient's recall ability using two sentences containing 13 separate details. On the two-sentence memory task, within three attempts the patient was able to recall 9 details and, using a multiple choice format, was able to recall a total of 11 details. Recall of 9 details on the third attempt would be normal for a middle-aged adult, let alone one […].
After a full year on memantine and acamprosate, the memantine was discontinued, with little change in the patient's symptoms.
Magnesium oxide, 250 mg three times a day, was added, each dose being taken together with the acamprosate. […] The effect was definite: movements worsened when magnesium oxide was stopped and improved when it was restarted. After a month on magnesium, the dosage of acamprosate was increased to 666 mg four times a day, with 250 mg of magnesium oxide given together with each dose. […] The only residual sign of TD was a mild degree of involuntary movement of the hands.

Data set [4] relates to patients with tic-related symptoms. As to conditions: in vivo; cited from earlier work.
The test system of data set [5] is patients with Meige syndrome. To be noted: cited from earlier work.

Regarding `COCCOC(=O)C1=C(C)NC(C)=C(C(=O)OC(C)C)C1c1cccc([N+](=O)[O-])c1` (stereo not shown) [nimodipine], in data set [1] (30 mg four times a day), the “reduction of involuntary movements” value is “about 50%” and the “time able to read text or music at a time” value was “no more than 30 minutes”. Also, the adverse effects entry in data set [1] (nimodipine 30 mg four times a day, memantine 10 mg twice a day) was “dizziness, lightheadedness, and palpitations”.
As to `NCC(CC(=O)O)c1ccc(Cl)cc1` (stereo not shown) [baclofen], the “effect on peak-dose dyskinesia” value in data set [2] is “no beneficial effect”. Also, in data set [2] (total daily dose 30 mg, then 60 mg), the adverse effects result is “sedation and nausea”.
For `[O]=[Mg]` [Magnesium oxide], the “effect on involuntary movements of TD” value in data set [3] is on record as “improved further”.
Take `Clc1cccc(Cl)c1N=C1NCCN1` [clonidine]: in data set [4], the “patients showing clinically significant improvement of tic-related symptoms” value is listed as less than 50% and the “side effects that limit use” value is reported as “hypotension or sedation”.
On to `CC(C[N+](C)(C)C)OC(N)=O` (stereo not shown) [bethanecol], for which the “effect on peak-dose dyskinesia” value in data set [2] is reported as “did not appear to affect”.
Take `Cc1nnc2n1-c1ccc(Cl)cc1C(c1ccccc1)=NC2` [alprazolam]: the “effect on involuntary movements of TD” value in data set [1] (memantine 10 mg twice a day) is on record as “no detectable effect”.
Turning to vitamin E, the “effect on involuntary movements of TD” value in data set [1] (memantine 10 mg twice a day) is recorded as “either produced little benefit or were not tolerated”.
For the molecule `OC(CCN1CCCCC1)(c1ccccc1)C1CCCCC1` (stereo not shown) [Trihexyphenidyl, trihexyphenidyl], the “effect on involuntary movements of TD” value in data set [1] (memantine 10 mg twice a day) is given as “discontinued without a change in their involuntary movements”.
Regarding `O=C1CC2(CCCC2)CC(=O)N1CCCCN1CCN(c2ncccn2)CC1` [buspirone], the “effect on involuntary movements of TD” value in data set [1] (memantine 10 mg twice a day) is “either produced little benefit or were not tolerated”.
With medroxyprogesterone, in data set [2], the “effect on peak-dose dyskinesia” value is on record as “did not appear to affect”.
For the molecule `COc1cc2c(cc1OC)C1CC(=O)C(CC(C)C)CN1CC2` (stereo not shown) [Tetrabenazine], in data set [5], the “patients with involuntary movements alleviated” value is listed as 4 of 6; the undesirable side effects entry is “drowsiness, drooling and Parkinsonism”.
Regarding `NC(=O)N1c2ccccc2C=Cc2ccccc21` [carbamazepine], the “effect on peak-dose dyskinesia” value in data set [2] is recorded as “did not appear to affect”.
As to `CN[C@H]1CC[C@@H](c2ccc(Cl)c(Cl)c2)c2ccccc21` [sertraline], in data set [1] (memantine 10 mg twice a day), the “effect on involuntary movements of TD” value is listed as “either produced little benefit or were not tolerated”. Moreover, the “effect on peak-dose dyskinesia” value in data set [2] is recorded as “did not appear to affect”.
